Reference: US20240148962A1, “INTRAVENOUS DELIVERY OF LARGE VOLUMES OF GAS WITH HIGHLY PRESSURIZED SUPERSATURATED SOLUTION” (Regents of the University of Minnesota, priority 2021, published 2024)

What was measured:
[1] = Oxygen content dissolved in saline under different pressure and temperature, with and without nanobubbles; assay type: physicochemical; conditions: FIG. 4A; 5° C. and 5 atm
Excerpt: Nanobubbles (triangles) are compared to control and macrobubbles (dots).

[2] = 1 atm, room temperature; cited from earlier work

- oxygen content in saline without nanobubbles [1]: 200 ml of oxygen per L of saline
SMILES: O=O [oxygen]
- content of oxygen, previously published evidence [2]: 43 ml/liter
